Data from paper PMC6199744, “Development of Chemical Proteomics for the Folateome and Analysis of the Kinetoplastid Folateome” (ACS Infectious Diseases, 2018).
Where two headings read alike, the source gives them in different places.

Experiments:
Assay type in all cases: binding
[1] = target: T1, HeLa cell extract proteins (Homo sapiens, UniProt P0DMV8)
T1 construct: endogenous in cells; host or cells: HeLa cell extract

[2] = target: T2, HeLa cell extract proteins (Homo sapiens, UniProt P11413)
T2 construct: endogenous in cells; host or cells: HeLa cell extract

[3] = target: T3, HeLa cell extract proteins (Homo sapiens, UniProt P24539)
T3 construct: endogenous in cells; host or cells: HeLa cell extract
T3 sequence (P24539 43-256): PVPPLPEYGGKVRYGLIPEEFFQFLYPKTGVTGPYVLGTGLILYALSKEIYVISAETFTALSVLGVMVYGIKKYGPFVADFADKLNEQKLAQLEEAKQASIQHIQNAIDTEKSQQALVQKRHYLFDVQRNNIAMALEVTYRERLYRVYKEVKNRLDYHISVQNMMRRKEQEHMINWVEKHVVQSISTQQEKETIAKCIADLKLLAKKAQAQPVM

[4] = target: T4, HeLa cell extract proteins (Homo sapiens, UniProt P51858)
T4 construct: endogenous in cells; host or cells: HeLa cell extract

[5] = target: T5, HeLa cell extract proteins (Homo sapiens, UniProt Q6JQN1)
T5 construct: endogenous in cells; host or cells: HeLa cell extract
T5 sequence (Q6JQN1 1-1059): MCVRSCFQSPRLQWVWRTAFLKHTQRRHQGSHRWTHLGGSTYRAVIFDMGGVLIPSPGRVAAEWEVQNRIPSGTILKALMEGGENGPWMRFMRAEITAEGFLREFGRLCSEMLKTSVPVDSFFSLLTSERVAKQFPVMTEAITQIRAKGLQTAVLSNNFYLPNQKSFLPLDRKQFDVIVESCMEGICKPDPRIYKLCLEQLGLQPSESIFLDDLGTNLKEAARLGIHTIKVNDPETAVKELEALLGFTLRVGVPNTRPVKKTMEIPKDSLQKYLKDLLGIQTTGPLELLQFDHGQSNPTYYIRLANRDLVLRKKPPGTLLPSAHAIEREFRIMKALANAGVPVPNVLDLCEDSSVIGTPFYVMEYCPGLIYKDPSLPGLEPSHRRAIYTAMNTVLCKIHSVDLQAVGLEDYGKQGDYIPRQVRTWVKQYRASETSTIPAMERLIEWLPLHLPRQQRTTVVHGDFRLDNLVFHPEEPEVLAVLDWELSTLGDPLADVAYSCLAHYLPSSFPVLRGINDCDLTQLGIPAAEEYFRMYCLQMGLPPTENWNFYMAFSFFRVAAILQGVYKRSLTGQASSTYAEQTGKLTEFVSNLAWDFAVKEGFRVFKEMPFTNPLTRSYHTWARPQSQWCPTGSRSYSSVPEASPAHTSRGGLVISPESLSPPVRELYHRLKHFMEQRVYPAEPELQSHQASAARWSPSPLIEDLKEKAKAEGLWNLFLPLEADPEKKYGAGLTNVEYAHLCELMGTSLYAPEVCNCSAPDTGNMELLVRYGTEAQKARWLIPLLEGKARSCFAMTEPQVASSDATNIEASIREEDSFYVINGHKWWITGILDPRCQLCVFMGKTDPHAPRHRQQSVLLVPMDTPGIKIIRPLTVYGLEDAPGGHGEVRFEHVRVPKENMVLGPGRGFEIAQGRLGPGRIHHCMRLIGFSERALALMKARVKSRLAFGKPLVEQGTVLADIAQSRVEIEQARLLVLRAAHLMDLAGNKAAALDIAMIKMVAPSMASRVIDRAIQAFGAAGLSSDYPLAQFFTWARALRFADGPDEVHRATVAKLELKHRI

[6] = target: T6, HeLa cell extract proteins (Homo sapiens, UniProt Q8NFH4)
T6 construct: endogenous in cells; host or cells: HeLa cell extract
T6 sequence (Q8NFH4 1-326): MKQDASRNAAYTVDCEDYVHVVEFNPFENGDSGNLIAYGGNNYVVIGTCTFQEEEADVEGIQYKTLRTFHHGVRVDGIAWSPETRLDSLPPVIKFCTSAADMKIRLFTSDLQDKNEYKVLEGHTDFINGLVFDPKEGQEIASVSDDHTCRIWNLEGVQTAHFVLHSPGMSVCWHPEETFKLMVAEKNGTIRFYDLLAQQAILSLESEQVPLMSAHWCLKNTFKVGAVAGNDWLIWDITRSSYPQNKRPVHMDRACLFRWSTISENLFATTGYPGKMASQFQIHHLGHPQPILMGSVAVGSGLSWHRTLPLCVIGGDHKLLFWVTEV

[7] = target: T7, HeLa cell extract proteins (Homo sapiens, UniProt Q9NYU2)
T7 construct: endogenous in cells; host or cells: HeLa cell extract

[8] = target: T8, HeLa cell extract proteins (Homo sapiens, UniProt Q9UJP4)
T8 construct: endogenous in cells; host or cells: HeLa cell extract
T8 sequence (Q9UJP4 1-597): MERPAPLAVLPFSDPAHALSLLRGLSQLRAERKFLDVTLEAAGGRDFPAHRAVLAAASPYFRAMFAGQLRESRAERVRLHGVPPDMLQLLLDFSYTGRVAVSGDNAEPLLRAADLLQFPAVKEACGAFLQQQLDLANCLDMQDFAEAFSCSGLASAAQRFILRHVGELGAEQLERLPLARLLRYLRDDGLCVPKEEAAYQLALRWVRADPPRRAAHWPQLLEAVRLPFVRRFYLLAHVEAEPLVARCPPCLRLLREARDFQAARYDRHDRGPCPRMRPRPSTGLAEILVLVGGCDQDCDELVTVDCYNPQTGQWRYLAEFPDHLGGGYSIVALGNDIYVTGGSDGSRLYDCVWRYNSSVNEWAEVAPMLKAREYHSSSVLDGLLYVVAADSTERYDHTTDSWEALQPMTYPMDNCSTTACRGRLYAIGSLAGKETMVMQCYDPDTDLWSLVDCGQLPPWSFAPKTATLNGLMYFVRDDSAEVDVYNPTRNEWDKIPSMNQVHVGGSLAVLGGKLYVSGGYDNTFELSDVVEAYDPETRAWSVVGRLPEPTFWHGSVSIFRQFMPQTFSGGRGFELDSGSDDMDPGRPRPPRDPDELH

T7 sequence (Q9NYU2 43-1555): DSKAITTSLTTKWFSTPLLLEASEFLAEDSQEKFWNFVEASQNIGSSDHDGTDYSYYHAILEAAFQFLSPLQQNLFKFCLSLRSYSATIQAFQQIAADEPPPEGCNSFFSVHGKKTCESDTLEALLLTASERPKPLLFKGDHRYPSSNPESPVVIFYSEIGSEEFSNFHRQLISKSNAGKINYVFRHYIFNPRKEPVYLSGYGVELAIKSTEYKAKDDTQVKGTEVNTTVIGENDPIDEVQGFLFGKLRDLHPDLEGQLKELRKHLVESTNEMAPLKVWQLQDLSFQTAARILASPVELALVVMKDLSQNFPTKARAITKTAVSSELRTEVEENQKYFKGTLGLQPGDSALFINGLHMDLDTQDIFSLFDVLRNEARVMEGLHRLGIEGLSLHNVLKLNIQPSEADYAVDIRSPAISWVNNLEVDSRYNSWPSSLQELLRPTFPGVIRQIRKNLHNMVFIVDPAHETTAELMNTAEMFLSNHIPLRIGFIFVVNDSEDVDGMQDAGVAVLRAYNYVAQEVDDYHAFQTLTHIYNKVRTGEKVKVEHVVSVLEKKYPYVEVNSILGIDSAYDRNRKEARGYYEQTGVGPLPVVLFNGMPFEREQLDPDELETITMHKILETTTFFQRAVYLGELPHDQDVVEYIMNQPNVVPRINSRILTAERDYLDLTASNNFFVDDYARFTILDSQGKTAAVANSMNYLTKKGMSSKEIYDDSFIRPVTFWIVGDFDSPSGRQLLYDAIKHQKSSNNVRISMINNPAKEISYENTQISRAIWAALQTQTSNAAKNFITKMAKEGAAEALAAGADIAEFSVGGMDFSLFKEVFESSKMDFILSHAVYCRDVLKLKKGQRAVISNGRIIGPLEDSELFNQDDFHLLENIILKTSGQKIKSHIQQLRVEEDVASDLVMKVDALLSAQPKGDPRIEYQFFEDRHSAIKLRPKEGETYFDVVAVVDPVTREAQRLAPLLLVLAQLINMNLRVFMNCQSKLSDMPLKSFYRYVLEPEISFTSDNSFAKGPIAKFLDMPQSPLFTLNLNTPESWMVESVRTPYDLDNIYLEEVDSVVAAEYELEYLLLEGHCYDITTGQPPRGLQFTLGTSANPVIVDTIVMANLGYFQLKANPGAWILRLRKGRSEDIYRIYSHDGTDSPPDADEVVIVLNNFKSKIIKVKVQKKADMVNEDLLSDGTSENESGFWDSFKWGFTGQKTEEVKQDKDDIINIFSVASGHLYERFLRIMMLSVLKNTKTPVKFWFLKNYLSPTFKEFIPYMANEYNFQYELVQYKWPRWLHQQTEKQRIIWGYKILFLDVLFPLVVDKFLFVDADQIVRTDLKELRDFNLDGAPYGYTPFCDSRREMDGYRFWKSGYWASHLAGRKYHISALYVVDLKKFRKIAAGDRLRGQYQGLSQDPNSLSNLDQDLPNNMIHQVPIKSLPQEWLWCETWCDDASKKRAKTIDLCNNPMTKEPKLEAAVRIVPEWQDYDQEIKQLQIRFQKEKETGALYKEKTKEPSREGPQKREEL
T1 sequence (P0DMV8 whole entry): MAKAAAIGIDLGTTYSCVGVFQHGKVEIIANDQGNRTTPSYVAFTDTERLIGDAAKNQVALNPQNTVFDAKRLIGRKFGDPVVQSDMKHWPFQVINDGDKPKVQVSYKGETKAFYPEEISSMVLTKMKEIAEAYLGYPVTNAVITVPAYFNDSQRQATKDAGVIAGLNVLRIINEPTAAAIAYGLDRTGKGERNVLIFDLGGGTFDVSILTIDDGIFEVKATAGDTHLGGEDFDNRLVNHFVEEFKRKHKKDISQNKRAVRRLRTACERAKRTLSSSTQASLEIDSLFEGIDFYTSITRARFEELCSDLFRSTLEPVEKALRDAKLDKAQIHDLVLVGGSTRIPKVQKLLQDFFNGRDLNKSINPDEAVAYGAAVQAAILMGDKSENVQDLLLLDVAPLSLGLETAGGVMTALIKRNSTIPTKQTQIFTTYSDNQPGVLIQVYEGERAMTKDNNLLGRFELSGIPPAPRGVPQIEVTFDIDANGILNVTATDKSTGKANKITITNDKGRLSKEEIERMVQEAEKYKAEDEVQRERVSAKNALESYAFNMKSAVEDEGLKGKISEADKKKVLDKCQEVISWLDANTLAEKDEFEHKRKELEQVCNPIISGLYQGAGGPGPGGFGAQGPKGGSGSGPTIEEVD
T4 sequence (P51858 whole entry): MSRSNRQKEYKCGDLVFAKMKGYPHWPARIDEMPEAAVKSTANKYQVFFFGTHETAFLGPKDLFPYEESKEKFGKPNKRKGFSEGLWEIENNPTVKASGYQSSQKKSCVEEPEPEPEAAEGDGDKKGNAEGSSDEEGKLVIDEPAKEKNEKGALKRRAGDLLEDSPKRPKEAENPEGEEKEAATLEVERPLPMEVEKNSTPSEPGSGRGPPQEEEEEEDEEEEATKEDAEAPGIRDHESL
T2 sequence (P11413 whole entry): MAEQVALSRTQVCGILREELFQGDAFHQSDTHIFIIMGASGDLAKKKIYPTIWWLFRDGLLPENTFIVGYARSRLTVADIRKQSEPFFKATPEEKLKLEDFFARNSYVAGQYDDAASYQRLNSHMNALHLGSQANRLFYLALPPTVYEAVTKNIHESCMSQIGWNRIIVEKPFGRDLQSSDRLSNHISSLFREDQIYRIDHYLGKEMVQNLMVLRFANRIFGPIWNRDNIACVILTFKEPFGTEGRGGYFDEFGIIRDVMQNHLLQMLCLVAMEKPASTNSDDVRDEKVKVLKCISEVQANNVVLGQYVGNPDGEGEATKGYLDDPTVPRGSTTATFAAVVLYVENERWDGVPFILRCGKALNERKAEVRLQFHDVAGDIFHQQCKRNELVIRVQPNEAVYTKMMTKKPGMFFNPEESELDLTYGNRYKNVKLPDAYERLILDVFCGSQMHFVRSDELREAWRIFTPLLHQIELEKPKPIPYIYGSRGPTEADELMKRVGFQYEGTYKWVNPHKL

Row | Structure (SMILES) | fold changes relative to vehicle control ([1]; HeLa, captured protein HSPA1A) | fold changes relative to vehicle control ([2]; HeLa, protein G6PD) | fold changes relative to vehicle control ([3]; HeLa, captured protein ATP5F1) | fold changes relative to vehicle control ([4]; HeLa, protein HDGF) | fold changes relative to vehicle control ([5]; protein ACAD10, HeLa) | fold changes relative to vehicle control ([6]; HeLa, protein NUP37) | fold changes relative to vehicle control ([7]; HeLa, protein UGCGL1) | fold changes relative to vehicle control ([8]; HeLa, protein KLHL21) | fold changes relative to vehicle control ([1]; protein HSPA1A, HeLa) | fold changes relative to vehicle control ([2]; protein G6PD, HeLa) | fold changes relative to vehicle control ([3]; HeLa, protein ATP5F1) | fold changes relative to vehicle control ([4]; protein HDGF, HeLa) | fold changes relative to vehicle control ([5]; captured protein ACAD10, HeLa) | fold changes relative to vehicle control ([6]; captured protein NUP37, HeLa) | fold changes relative to vehicle control ([7]; protein UGCGL1, HeLa) | further results
1 | Nc1nc2c(c(=O)[nH]1)N(C=O)C(CNc1ccc(C(=O)N[C@@H](CCC(=O)O)C(=O)O)cc1)CN2 (some centres unmarked) [LEU, leucovorin] | 1.02 | 1.12 | 1.15 | 1.06 | 0.96 | 0.86 | 1.09 | 1.02 | – | – | – | – | – | – | – | –
2 | Nc1nc2[nH]cc(CCc3ccc(C(=O)N[C@@H](CCC(=O)O)C(=O)O)cc3)c2c(=O)[nH]1 [PTX, pemetrexed] | – | – | – | – | – | – | – | – | – | – | – | – | – | – | – | fold changes relative to vehicle control [1]: 0.98; fold changes relative to vehicle control [2]: 1.21; fold changes relative to vehicle control [3]: 1.13; fold changes relative to vehicle control [4]: 1.21; fold changes relative to vehicle control [5]: 0.71; fold changes relative to vehicle control [6]: 0.91; fold changes relative to vehicle control [7]: 1.02; fold changes relative to vehicle control [8]: 0.95
3 | CCCCCCOc1ccc(Cc2cnc(N)nc2N)cc1 [compound 1] | – | – | – | – | – | – | – | 1.06 | 0.97 | 1.15 | 1.05 | 1.26 | 0.84 | 1.14 | 0.99 | –
4 | CCCCCCOc1cccc(Cc2cnc(N)nc2N)c1 [compound 2] | – | – | – | – | – | – | – | 1.01 | 1.09 | 1.89 | 0.85 | 2.45 | 0.84 | 0.98 | 1.22 | –
5 | Nc1nc2cccc(-c3ccccc3)c2n1Cc1ccc(Cl)c(Cl)c1 [compound 3] | – | – | – | – | – | – | – | 1.04 | 1 | 1.03 | 0.88 | 0.9 | 0.94 | 1.01 | 1.05 | –
6 | NCCOCCOCC(=O)Nc1nc2ncc(CNc3ccc(C(=O)NC(CCC(=O)O)C(=O)O)cc3)nc2c(=O)[nH]1 (centres unmarked) [compound 6] | 1 | 1.32 | 0.96 | 1.31 | 0.76 | 0.9 | 1.01 | 1 | – | – | – | – | – | – | – | –
7 | NCCCNc1ccc(C(=O)NC(CCC(=O)O)C(=O)O)cc1 (centres unmarked) [compound 7] | 0.99 | 1.09 | 1.05 | 0.97 | 0.95 | 0.96 | 1.05 | 0.97 | – | – | – | – | – | – | – | –
